Measured values reported in patent US11530244B2, “Cyclic polypeptides for PCSK9 inhibition” (priority 2018, dated 2022).
Starred links: 1 amine or outer side, 2 acyl side, 3 side chain; linkers in the order of their positions; H or OH if unused. Positions of bridges follow the written chain, without caps; N, C: chain ends. Non-standard residues stand in square brackets, D forms with d. Residues, ends and D or L forms follow the SMILES beside them. Groups on a side chain read outwards from the residue. *: point of attachment. X29 = O=C([C@H](Cc1ccc(CC=[*:3])cc1)N[*:1])[*:2]; Trp(5-F) = N[C@@H](Cc1c[nH]c2ccc(F)cc12)C(=O)O; Phe(4-CH2NH2) = NCc1ccc(C[C@H](N)C(=O)O)cc1; X3 = O=C(CCSCc1cc(F)cc(CSCCN[*:1])c1)[*:2]; Heptanedioyl = O=C(CCCCCC(=O)[*:2])[*:1]; Pro(cis-4-F) = O=C(O)[C@@H]1C[C@H](F)CN1; Hag = O=C([C@H](CCC=[*:3])N[*:1])[*:2]; γGlu = O=C(O)[C@H](CCC(=O)[*:2])N[*:1]; mXylylene = c1cc(C[*:1])cc(C[*:2])c1; Adipoyl = O=C(CCCCC(=O)[*:2])[*:1]; Glutaryl = O=C(CCCC(=O)[*:2])[*:1]; Palmitoyl = CCCCCCCCCCCCCCCC(=O)*; αMeP = C[C@@]1(C(=O)O)CCCN1; Dap = NC[C@H](N)C(=O)O; AEEA = NCCOCCOCC(=O)O; AEA = NCCOCC(=O)O; Mpa = O=C(O)CCS

Experiments:
PCSK9 [1] = molecular target: T1, PCSK9 (Homo sapiens (Human), UniProt Q8NBP7); test: PCSK9 Alexa FRET Plus assay (displacement of AlexaFluor647 tagged cyclic peptide Reagent B); assay type: binding; settings: Alexa FRET Plus, 0.5 nM PCSK9, 960 nM AF cyclic peptide Reagent B; read-out: IC50
T1 sequence (Q8NBP7 153-692): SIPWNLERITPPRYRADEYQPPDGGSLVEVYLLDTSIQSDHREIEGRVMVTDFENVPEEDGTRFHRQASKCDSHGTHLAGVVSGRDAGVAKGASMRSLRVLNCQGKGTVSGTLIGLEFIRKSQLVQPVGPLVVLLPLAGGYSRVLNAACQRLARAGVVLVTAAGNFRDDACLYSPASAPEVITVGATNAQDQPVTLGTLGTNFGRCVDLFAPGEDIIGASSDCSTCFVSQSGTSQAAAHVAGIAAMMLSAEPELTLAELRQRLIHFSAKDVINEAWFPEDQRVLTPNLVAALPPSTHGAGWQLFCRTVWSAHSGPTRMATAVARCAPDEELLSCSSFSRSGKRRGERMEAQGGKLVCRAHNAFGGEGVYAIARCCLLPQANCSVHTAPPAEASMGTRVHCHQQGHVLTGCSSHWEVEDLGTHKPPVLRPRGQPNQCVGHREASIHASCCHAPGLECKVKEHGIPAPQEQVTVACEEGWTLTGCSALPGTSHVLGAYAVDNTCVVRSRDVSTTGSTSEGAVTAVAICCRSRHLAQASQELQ
Method: A solution containing 1 nM biotinylated PCSK9+2.5 nM Lance Streptavidin Europium (Strep-Eu) was made in 50 mM HEPES pH 7.4, 0.15 M NaCl, 5 mM CaCl2), 0.01% BSA, and 0.01% Surfactant P20. A separate solution containing 1920 nM of the AlexaFluor tagged cyclic peptide was made in the same buffer system. An Echo was used to transfer 0.075 ul of compound plus 0.675 ul of DMSO to each well of an assay plate followed by the addition of 15 ul of PCSK9+Stept-Eu and 15 ul of AF peptide. The final assay volume was 30.750 ul containing 0.5 nM PCSK9, 1.25 nM Strep-Eu, and 960 nM AF cyclic peptide. The reaction was incubated at room temperature for at least two hours prior to fluorescence measurements using an Envision Multilabel Reader. IC50 values were determined by fitting data to a sigmoidal dose-response curve using nonlinear regression. Ki was then calculated from the IC50 and the KD of AF cyclic peptide. Counts (B-counts) of the europium-labeled PCSK9 were followed to observe if compounds were adversely affecting PCSK9. A fall off of the B-counts likely indicated a false positive of inhibition. Data from this procedure was reported as “P=‘numerical value’ (nanomolar)”

PCSK9 [2] = molecular target: T1, PCSK9; test: PCSK9 Alexa FRET Standard assay (displacement of AlexaFluor647 tagged cyclic peptide Reagent A); assay type: binding; settings: PCSK9 Alexa FRET Standard assay, 0.5 nM PCSK9, 20 nM AF cyclic peptide Reagent A; read-out: IC50
Summary of the method: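 TR-FRET displacement: 0.5 nM biotinylated PCSK9 with 1.25 nM Strep-Eu and 20 nM AlexaFluor-tagged cyclic peptide (final) in 50 mM HEPES pH 7.4, 0.15 M NaCl, 5 mM CaCl2, 0.01% BSA, 0.01% P20, ≥2 h at room temperature. IC50 from sigmoidal fit, converted to Ki via peptide KD; falling Eu counts flagged false positives.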

Compound | IC50 (PCSK9 [1]) | IC50 (PCSK9 [2])
CCCCCCCCCCCCCCCC(=O)N[C@@H](CCC(=O)NCCOCCOCC(=O)NCCOCCOCC(=O)NCCCC[C@H](NC(C)=O)C(=O)NCCOCCOCC(=O)N[C@@H]1CSCc2cccc(c2)CSC[C@@H](C(N)=O)NC(=O)[C@]2(C)CCCN2C(=O)[C@H](Cc2ccc(O)cc2)NC(=O)[C@H]([C@@H](C)O)NC(=O)N2C[C@@H](F)C[C@H]2C(=O)[C@H](Cc2c[nH]c3ccc(F)cc23)NC(=O)[C@H](Cc2c[nH]c3ccc(F)cc23)NC(=O)[C@@H](C)NC(=O)[C@H](C)NC1=O)C(=O)O [Compound 135] | 0.1 to 100 nM | 0.11 to 100 nM
CCCCCCCCCCCCCCCC(=O)N[C@@H](CCC(=O)NCCOCCOCC(=O)NCCOCCOCC(=O)NCCCC[C@H](NC(C)=O)C(=O)NCCOCCOCCOCCOCCOCCOCCOCCOCCOCCOCCOCCOCCC(=O)N[C@@H]1CSCc2cccc(c2)CSC[C@@H](C(N)=O)NC(=O)[C@]2(C)CCCN2C(=O)[C@H](Cc2ccc(O)cc2)NC(=O)[C@H]([C@@H](C)O)NC(=O)N2C[C@@H](F)C[C@H]2C(=O)[C@H](Cc2c[nH]c3ccc(F)cc23)NC(=O)[C@H](Cc2c[nH]c3ccc(F)cc23)NC(=O)[C@@H](C)NC(=O)[C@H](C)NC1=O)C(=O)O [Compound 136] | 0.1 to 100 nM | 0.11 to 100 nM
COc1ccc(C[C@@H]2NC(=O)[C@H]([C@@H](C)O)NC(=O)[C@@H]3C[C@H](F)CN3C(=O)[C@H](Cc3c[nH]c4ccc(F)cc34)NC(=O)[C@H](Cc3c[nH]c4ccc(F)cc34)NC(=O)[C@@H](C)NC(=O)[C@H](CCCCN)NC(=O)[C@@H](NC(C)=O)CCC/C=C\Cc3ccc(cc3)C[C@@H](C(N)=O)NC(=O)[C@]3(C)CCCN3C2=O)cc1 [Compound 137] | 500 to 5000 nM | 21000 to 50000 nM
COc1ccc(C[C@@H]2NC(=O)[C@H]([C@@H](C)O)NC(=O)[C@@H]3C[C@H](F)CN3C(=O)[C@H](Cc3c[nH]c4ccc(F)cc34)NC(=O)[C@H](Cc3c[nH]c4ccc(F)cc34)NC(=O)[C@@H](C)NC(=O)[C@H](CCCCN)NC(=O)[C@@H](NC(C)=O)CC/C=C/Cc3ccc(cc3)C[C@@H](C(N)=O)NC(=O)[C@]3(C)CCCN3C2=O)cc1 [Compound 138] (Ac-[Hag]K[dA][Trp(5-F)][Trp(5-F)][Pro(cis-4-F)]TY(Me)[αMeP][X29]-NH2; staple (E) 1-10) | 500 to 5000 nM | 100 to 1000 nM
C[C@@]12CCCN1C(=O)[C@H](Cc1ccc(O)cc1)NC(=O)N[C@H]1CCCc3ccc(cc31)C(=O)[C@H](Cc1c[nH]c3ccc(F)cc13)NC(=O)[C@H](Cc1c[nH]c3ccc(F)cc13)NC(=O)CNC(=O)[C@H](CCCCN)NC(=O)CCSCc1cccc(c1)CSC[C@@H](C(N)=O)NC2=O [Compound 139] | 500 to 5000 nM | 1000 to 12100 nM
C[C@@]12CCCN1C(=O)[C@H](Cc1ccc(O)cc1)NC(=O)N[C@@H]1CCCc3ccc(cc31)C(=O)[C@H](Cc1c[nH]c3ccc(F)cc13)NC(=O)[C@H](Cc1c[nH]c3ccc(F)cc13)NC(=O)CNC(=O)[C@H](CCCCN)NC(=O)CCSCc1cccc(c1)CSC[C@@H](C(N)=O)NC2=O [Compound 140] | 100 to 500 nM | 0.11 to 100 nM
COc1ccc(C[C@@H]2NC(=O)[C@H]([C@@H](C)O)NC(=O)[C@@H]3C[C@H](F)CN3C(=O)[C@H](Cc3c[nH]c4ccc(F)cc34)NC(=O)[C@H](Cc3c[nH]c4ccc(F)cc34)NC(=O)[C@@H](C)NC(=O)[C@H](CCCCN)NC(=O)[C@@H](NC(C)=O)CCCCCc3ccc(cc3)C[C@@H](C(N)=O)NC(=O)[C@]3(C)CCCN3C2=O)cc1 [Compound 141] | 500 to 5000 nM | 100 to 1000 nM
COc1ccc(C[C@@H]2NC(=O)[C@H](Cc3cnc[nH]3)NC(=O)[C@H](CC(=O)O)NC(=O)[C@H](Cc3c[nH]c4ccc(F)cc34)NC(=O)[C@H](Cc3c[nH]c4ccc(F)cc34)NC(=O)[C@@H](C)NC(=O)CCc3cn(nn3)-c3ccc(cc3)C[C@@H](C(N)=O)NC(=O)[C@]3(C)CCCN3C2=O)cc1 [Compound 416] | 0.1 to 100 nM | 0.11 to 100 nM
COc1ccc(C[C@@H]2NC(=O)[C@H](Cc3cnc[nH]3)NC(=O)[C@H](CC(=O)O)NC(=O)[C@H](Cc3c[nH]c4ccc(F)cc34)NC(=O)[C@H](Cc3c[nH]c4ccc(F)cc34)NC(=O)[C@@H](C)NC(=O)CCCC(=O)NCc3ccc(cc3)C[C@@H](C(N)=O)NC(=O)[C@]3(C)CCCN3C2=O)cc1 [Compound 417] ([dA][Trp(5-F)][Trp(5-F)]DHY(Me)[αMeP][Phe(4-CH2NH2)]-NH2; linker N-8 via Glutaryl) | 100 to 500 nM | 0.11 to 100 nM
COc1ccc(C[C@@H]2NC(=O)[C@H](Cc3cnc[nH]3)NC(=O)[C@H](CC(=O)O)NC(=O)[C@H](Cc3c[nH]c4ccc(F)cc34)NC(=O)[C@H](Cc3c[nH]c4ccc(F)cc34)NC(=O)[C@@H](C)NC(=O)CCCCC(=O)NCc3ccc(cc3)C[C@@H](C(N)=O)NC(=O)[C@]3(C)CCCN3C2=O)cc1 [Compound 419] ([dA][Trp(5-F)][Trp(5-F)]DHY(Me)[αMeP][Phe(4-CH2NH2)]-NH2; linker N-8 via Adipoyl) | 500 to 5000 nM | 100 to 1000 nM
CC(=O)N[C@@H]1CCC/C=C/CO[C@H]2C[C@@H](C(N)=O)N(C2)C(=O)[C@H](Cc2ccc(O)cc2)NC(=O)[C@H](Cc2cnc[nH]2)NC(=O)[C@H](CC(=O)O)NC(=O)[C@H](Cc2c[nH]c3ccc(F)cc23)NC(=O)[C@H](Cc2c[nH]c3ccc(F)cc23)NC(=O)CNC1=O [Compound 420] | 100 to 500 nM | 100 to 1000 nM
CC(=O)N[C@@H]1CCCC/C=C\CO[C@H]2C[C@@H](C(N)=O)N(C2)C(=O)[C@H](Cc2ccc(O)cc2)NC(=O)[C@H](Cc2cnc[nH]2)NC(=O)[C@H](CC(=O)O)NC(=O)[C@H](Cc2c[nH]c3ccc(F)cc23)NC(=O)[C@H](Cc2c[nH]c3ccc(F)cc23)NC(=O)CNC1=O [Compound 422] | 100 to 500 nM | 0.11 to 100 nM
COc1ccc(C[C@@H]2NC(=O)[C@H](Cc3cnc[nH]3)NC(=O)[C@H](CC(=O)O)NC(=O)[C@H](Cc3c[nH]c4ccc(F)cc34)NC(=O)[C@H](Cc3c[nH]c4ccc(F)cc34)NC(=O)[C@@H](C)NC(=O)[C@H](CNC(=O)COCCN)NC(=O)CCSCc3cc(F)cc(c3)CSCCNC(=O)[C@]3(C)CCCN3C2=O)cc1 [Compound 423] (cyclo(DHY(Me)[αMeP][X3][Dap](AEA)[dA][Trp(5-F)][Trp(5-F)])) | 0.1 to 100 nM | 0.11 to 100 nM
NC(=O)[C@@H]1Cc2ccc(cc2)CNC(=O)CCCC(=O)NCC(=O)N[C@@H](Cc2c[nH]c3ccc(F)cc23)C(=O)N[C@@H](Cc2c[nH]c3ccc(F)cc23)C(=O)N[C@@H](CC(=O)O)C(=O)N[C@@H](Cc2cnc[nH]2)C(=O)N[C@@H](Cc2ccc(O)cc2)C(=O)N1 [Compound 437] (G[Trp(5-F)][Trp(5-F)]DHY[Phe(4-CH2NH2)]-NH2; linker N-7 via Glutaryl) | 100 to 500 nM | 0.11 to 100 nM
COc1ccc(C[C@@H]2NC(=O)[C@H](Cc3cnc[nH]3)NC(=O)[C@H](CC(=O)O)NC(=O)[C@H](Cc3c[nH]c4ccc(F)cc34)NC(=O)[C@H](Cc3c[nH]c4ccc(F)cc34)NC(=O)[C@@H](C)NC(=O)CCCCCC(=O)NCc3ccc(cc3)C[C@@H](C(N)=O)NC(=O)[C@]3(C)CCCN3C2=O)cc1 [Compound 440] ([dA][Trp(5-F)][Trp(5-F)]DHY(Me)[αMeP][Phe(4-CH2NH2)]-NH2; linker N-8 via Heptanedioyl) | 100 to 500 nM | 100 to 1000 nM
CCCCCCCCCCCCCCCC(=O)N[C@@H](CCC(=O)NCCOCCOCC(=O)NCCOCCOCC(=O)NCCCC[C@@H]1NC(=O)[C@H](CCCCN)NC(=O)CCSCc2cccc(c2)CSC[C@@H](C(N)=O)NC(=O)[C@]2(C)CCCN2C(=O)[C@H](Cc2ccc(O)cc2)NC(=O)[C@H](Cc2cnc[nH]2)NC(=O)[C@H](CC(=O)O)NC(=O)[C@H](Cc2c[nH]c3ccc(F)cc23)NC(=O)[C@H](Cc2c[nH]c3ccc(F)cc23)NC1=O)C(=O)O [Compound 452] ([Mpa]KK([AEEA-AEEA-γGlu-Palmitoyl])[Trp(5-F)][Trp(5-F)]DHY[αMeP]C-NH2; linker 1-10 via mXylylene) | 0.1 to 100 nM | 0.11 to 100 nM
CCCCCCCCCCCCCCCC(=O)N[C@@H](CCC(=O)NCCOCCOCC(=O)NCCOCCOCC(=O)NCc1ccc(C[C@@H]2NC(=O)[C@@H](C)NC(=O)[C@H](CCCCN)NC(=O)CCSCc3cccc(c3)CSC[C@@H](C(N)=O)NC(=O)[C@]3(C)CCCN3C(=O)[C@H](Cc3ccc(O)cc3)NC(=O)[C@H](Cc3cnc[nH]3)NC(=O)[C@H](CC(=O)O)NC(=O)[C@H](Cc3c[nH]c4ccc(F)cc34)NC2=O)cc1)C(=O)O [Compound 453] ([Mpa]K[dA][Phe(4-CH2NH2)]([AEEA-AEEA-γGlu-Palmitoyl])[Trp(5-F)]DHY[αMeP]C-NH2; linker 1-10 via mXylylene) | 0.1 to 100 nM | 0.11 to 100 nM
